Experimental data reported in ChEMBL document CHEMBL5223180, “Design, Synthesis, and Bioevaluation of Pyrido[2,3-d]pyrimidin-7-ones as Potent SOS1 Inhibitors” (ACS Med Chem Lett, 2023).

Legend:
[1] = tested on: GTPase KRas (Homo sapiens), P01116 [G12D]; settings: dose 10.0 µM
MIA PaCa-2 = test: cells; settings: Homo sapiens, MIA PaCa-2, 168 h
[2] = target: T1, Son of sevenless homolog 1 (Homo sapiens, UniProt Q07889); test: Inhibition of 6His-tagged SOS1 (unknown origin) mediated GST-tagged KRAS G12D activation preincubated for 15 mins followed by KRAS G12D addition and measured after 30 mins by HTRF assay
T1 sequence (Q07889 whole entry): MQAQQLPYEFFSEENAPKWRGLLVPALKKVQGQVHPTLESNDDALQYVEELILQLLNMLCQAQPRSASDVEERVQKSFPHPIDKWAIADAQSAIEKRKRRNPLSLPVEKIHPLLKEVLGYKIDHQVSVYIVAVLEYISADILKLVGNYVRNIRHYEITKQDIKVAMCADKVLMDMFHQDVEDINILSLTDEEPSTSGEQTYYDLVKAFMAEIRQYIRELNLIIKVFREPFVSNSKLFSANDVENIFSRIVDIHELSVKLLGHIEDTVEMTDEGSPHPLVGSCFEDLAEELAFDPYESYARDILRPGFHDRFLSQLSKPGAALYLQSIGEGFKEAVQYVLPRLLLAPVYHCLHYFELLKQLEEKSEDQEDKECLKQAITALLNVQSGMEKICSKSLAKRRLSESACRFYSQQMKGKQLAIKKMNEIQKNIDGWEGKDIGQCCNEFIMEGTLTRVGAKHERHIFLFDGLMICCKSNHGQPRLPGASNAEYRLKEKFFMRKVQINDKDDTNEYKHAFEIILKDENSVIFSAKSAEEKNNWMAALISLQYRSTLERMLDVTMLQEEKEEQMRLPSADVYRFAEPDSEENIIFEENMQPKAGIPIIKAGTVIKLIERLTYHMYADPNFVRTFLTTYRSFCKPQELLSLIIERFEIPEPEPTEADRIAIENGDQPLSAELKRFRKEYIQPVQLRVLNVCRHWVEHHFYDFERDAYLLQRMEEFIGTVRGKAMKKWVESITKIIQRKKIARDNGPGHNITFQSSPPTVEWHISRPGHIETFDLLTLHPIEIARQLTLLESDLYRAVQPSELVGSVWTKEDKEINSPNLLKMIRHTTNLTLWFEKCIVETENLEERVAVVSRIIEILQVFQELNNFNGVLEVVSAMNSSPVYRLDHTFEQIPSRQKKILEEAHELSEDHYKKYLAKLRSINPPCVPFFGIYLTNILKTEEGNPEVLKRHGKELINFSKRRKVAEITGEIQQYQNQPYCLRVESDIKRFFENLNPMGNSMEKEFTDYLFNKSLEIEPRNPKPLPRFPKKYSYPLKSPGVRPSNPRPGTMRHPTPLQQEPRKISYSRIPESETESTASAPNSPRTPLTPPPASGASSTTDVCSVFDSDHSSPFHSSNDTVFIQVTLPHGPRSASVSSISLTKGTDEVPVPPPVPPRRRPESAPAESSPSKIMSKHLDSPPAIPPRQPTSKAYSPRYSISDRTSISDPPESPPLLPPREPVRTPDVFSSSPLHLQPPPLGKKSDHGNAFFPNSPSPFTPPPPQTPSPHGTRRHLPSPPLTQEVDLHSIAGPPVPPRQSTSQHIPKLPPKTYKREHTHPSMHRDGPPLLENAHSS

[3] = target: Fibroblast growth factor receptor 1 (Homo sapiens, UniProt P11362); test: Inhibition of FGFR1 (unknown origin)
[4] = target: Epidermal growth factor receptor (Homo sapiens, UniProt P00533); test: Inhibition of EGFR (unknown origin)
[5] = target: Receptor tyrosine-protein kinase erbB-2 (Homo sapiens, UniProt P04626); test: Inhibition of HER2 (unknown origin)
[6] = target: Platelet-derived growth factor receptor alpha (Homo sapiens, UniProt P16234); test: Inhibition of PDGFRalpha (unknown origin)
[7] = target: Cyclin-dependent kinase 2 (Homo sapiens, UniProt P24941); test: Inhibition of CDK2 (unknown origin)
[8] = target: Cyclin-dependent kinase 4 (Homo sapiens, UniProt P11802); test: Inhibition of CDK4 (unknown origin)
Sequence of Cyclin-dependent kinase 4 (P11802 whole entry): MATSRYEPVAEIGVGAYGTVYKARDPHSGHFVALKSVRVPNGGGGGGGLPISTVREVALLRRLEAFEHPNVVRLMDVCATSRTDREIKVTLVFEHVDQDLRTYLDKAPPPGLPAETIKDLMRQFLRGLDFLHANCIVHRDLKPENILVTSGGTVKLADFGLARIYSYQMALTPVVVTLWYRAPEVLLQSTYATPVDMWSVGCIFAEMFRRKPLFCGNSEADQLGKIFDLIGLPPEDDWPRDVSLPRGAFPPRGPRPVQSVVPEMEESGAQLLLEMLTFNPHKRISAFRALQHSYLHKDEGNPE

Sequence of Receptor tyrosine-protein kinase erbB-2 (P04626 whole entry): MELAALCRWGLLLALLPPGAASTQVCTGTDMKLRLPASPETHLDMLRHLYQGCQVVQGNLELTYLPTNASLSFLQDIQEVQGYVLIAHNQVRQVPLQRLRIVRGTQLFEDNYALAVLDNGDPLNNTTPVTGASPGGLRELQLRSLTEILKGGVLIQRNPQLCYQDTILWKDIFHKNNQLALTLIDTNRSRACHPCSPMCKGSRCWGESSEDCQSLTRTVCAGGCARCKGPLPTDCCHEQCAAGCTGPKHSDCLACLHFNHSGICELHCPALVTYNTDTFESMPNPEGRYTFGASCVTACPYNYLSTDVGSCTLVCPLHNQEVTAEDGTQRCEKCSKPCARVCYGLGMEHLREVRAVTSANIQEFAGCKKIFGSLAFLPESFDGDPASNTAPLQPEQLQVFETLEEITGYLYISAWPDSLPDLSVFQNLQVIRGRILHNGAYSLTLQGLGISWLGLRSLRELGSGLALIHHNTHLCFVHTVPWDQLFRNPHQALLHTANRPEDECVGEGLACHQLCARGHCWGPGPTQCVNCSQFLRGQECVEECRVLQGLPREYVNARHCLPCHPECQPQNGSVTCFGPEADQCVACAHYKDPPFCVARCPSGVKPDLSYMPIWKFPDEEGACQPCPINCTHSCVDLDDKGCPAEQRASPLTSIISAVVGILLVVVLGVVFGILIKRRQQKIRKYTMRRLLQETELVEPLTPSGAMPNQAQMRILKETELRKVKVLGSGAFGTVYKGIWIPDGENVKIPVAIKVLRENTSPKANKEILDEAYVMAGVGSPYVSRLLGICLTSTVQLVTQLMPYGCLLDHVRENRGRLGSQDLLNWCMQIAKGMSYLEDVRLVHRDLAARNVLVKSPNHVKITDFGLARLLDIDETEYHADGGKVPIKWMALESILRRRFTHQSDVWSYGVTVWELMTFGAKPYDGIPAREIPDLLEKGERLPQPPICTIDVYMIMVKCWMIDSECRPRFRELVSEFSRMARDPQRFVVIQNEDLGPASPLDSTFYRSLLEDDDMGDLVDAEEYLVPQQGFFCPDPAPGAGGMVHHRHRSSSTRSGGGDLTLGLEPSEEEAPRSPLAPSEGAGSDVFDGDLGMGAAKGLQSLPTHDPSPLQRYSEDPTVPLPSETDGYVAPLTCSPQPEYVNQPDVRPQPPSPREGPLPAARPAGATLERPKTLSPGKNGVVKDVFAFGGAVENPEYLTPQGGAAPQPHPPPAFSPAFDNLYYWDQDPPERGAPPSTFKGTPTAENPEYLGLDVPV
Sequence of GTPase KRas (Homo sapiens), P01116 [G12D] (P01116 whole entry G12D, looked up): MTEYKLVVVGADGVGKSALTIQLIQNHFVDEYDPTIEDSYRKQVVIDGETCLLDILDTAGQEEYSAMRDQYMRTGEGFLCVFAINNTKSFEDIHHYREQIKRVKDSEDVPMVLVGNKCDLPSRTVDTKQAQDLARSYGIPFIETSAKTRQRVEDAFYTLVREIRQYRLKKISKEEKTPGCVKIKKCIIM
Sequence of Fibroblast growth factor receptor 1 (P11362 whole entry): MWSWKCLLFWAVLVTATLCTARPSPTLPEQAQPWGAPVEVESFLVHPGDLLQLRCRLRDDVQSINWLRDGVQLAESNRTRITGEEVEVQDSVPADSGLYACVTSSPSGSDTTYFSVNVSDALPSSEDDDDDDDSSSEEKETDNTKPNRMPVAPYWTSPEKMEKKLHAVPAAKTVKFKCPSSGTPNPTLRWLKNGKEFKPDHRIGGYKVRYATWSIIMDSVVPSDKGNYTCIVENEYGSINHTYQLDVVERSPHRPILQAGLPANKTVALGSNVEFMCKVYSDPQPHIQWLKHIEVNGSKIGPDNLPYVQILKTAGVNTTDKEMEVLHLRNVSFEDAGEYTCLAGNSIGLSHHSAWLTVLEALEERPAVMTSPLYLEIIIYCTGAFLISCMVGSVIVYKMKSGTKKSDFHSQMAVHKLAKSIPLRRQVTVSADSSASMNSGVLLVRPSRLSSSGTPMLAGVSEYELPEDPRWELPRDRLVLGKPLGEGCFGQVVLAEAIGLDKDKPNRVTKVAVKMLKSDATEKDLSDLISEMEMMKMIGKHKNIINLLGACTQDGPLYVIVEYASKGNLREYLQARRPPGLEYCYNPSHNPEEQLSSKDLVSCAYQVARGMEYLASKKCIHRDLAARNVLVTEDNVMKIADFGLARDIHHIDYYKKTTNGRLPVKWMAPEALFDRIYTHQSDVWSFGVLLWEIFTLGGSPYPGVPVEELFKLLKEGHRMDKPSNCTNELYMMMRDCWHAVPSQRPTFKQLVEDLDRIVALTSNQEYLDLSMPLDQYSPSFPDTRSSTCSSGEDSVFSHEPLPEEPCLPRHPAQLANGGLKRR
Sequence of Epidermal growth factor receptor (P00533 whole entry): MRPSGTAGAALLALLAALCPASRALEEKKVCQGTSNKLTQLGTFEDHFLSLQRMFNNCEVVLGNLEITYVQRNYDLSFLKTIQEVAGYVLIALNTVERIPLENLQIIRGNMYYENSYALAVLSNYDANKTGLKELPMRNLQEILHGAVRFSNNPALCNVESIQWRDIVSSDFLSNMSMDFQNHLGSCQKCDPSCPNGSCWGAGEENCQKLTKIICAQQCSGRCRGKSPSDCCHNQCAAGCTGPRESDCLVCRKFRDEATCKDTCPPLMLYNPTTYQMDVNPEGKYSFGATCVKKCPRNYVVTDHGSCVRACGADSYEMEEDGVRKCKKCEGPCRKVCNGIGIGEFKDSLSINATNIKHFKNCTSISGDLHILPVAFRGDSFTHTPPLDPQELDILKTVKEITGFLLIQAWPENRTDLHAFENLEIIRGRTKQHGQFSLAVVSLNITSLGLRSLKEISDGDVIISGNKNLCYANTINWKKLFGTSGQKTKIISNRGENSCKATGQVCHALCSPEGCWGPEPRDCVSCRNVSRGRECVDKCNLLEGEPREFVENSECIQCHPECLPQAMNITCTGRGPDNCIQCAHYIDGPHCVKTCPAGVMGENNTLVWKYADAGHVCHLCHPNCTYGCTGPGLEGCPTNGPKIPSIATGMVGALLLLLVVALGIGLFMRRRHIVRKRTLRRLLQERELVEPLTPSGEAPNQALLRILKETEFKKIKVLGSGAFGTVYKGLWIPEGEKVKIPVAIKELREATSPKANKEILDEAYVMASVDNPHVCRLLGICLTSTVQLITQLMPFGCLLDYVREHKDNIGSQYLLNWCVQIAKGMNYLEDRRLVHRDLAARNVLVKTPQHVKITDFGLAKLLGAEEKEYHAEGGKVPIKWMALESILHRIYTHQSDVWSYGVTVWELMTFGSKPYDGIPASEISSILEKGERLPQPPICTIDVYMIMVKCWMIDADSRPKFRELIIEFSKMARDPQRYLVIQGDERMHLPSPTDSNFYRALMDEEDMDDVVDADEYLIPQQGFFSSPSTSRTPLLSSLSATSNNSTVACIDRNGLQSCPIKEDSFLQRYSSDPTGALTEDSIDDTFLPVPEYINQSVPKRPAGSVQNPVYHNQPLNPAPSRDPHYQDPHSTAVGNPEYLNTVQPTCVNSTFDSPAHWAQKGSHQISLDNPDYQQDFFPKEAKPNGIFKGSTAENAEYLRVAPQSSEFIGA
Sequence of Platelet-derived growth factor receptor alpha (P16234 whole entry): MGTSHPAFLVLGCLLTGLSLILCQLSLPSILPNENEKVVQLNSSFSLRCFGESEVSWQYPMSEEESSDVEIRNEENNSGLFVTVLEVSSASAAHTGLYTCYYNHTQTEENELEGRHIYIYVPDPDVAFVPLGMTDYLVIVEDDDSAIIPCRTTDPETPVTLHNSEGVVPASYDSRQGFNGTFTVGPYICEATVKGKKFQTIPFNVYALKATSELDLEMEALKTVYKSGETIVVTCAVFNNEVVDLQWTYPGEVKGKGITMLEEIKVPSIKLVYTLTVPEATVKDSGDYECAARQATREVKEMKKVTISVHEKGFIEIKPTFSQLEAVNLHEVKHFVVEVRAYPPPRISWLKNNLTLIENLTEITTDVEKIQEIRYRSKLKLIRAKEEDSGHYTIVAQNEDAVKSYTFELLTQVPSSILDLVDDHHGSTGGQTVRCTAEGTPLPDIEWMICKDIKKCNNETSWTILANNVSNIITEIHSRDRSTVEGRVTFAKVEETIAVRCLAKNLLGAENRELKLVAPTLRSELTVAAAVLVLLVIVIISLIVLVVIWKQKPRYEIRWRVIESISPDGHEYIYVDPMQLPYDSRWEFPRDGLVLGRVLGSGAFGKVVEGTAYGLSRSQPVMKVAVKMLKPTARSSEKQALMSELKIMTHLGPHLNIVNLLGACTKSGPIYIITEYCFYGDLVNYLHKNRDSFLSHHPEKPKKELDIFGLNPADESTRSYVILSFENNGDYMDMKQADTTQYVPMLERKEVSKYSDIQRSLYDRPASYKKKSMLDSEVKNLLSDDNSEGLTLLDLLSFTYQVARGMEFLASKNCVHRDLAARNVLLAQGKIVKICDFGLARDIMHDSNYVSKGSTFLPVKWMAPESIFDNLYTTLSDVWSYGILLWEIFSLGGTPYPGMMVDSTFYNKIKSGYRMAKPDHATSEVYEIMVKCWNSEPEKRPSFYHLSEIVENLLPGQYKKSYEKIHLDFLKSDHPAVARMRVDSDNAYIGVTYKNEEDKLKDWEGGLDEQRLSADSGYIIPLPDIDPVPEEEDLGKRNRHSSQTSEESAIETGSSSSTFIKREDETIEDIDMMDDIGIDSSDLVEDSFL

COc1cc2nc(C)nc(N[C@H](C)c3cc(N)cc(C(F)(F)F)c3)c2cc1O[C@H]1CCOC1
ΔTm [1]: 0 °C
IC50 (MIA PaCa-2): 0.03 µM

CC(=O)N1CCC(c2cc3c(Nc4cccc(C(F)(F)F)c4)ncnc3n(C)c2=O)CC1
IC50 [2]: > 5 µM

CC(=O)N1CCC(c2cc3c(N[C@H](C)c4cc(N)cc(C(F)(F)F)c4)nc(C)nc3n(C)c2=O)CC1
IC50 [3]: > 10 µM
IC50 [4]: > 10 µM
IC50 [5]: > 10 µM
IC50 [6]: > 10 µM
IC50 [7]: > 10 µM
IC50 [8]: > 10 µM

C[C@@H](Nc1ncnc2c1cc(N)c(=O)n2C)c1cc(N)cc(C(F)(F)F)c1
IC50 [2]: > 5 µM

C[C@@H](Nc1ncnc2c1ccc(=O)n2C)c1cc(N)cc(C(F)(F)F)c1
IC50 [2]: > 5 µM

CC(=O)Nc1cc2c(N[C@H](C)c3cc(N)cc(C(F)(F)F)c3)ncnc2n(C)c1=O
IC50 [2]: > 5 µM

C[C@@H](Nc1ncnc2c1cc(NC1CCCCC1)c(=O)n2C)c1cc(N)cc(C(F)(F)F)c1
IC50 [2]: > 5 µM
